Measured values reported in patent US10207991B2, “Isoindoline compositions and methods for treating neurodegenerative disease” (priority 2014, dated 2019).

assay: Mouse liver microsome (MLM) stability; assay type: in vitro ADME
Method: A first pharmacokinetic study was performed in microsomes of mice mouse liver microsomes, MLM) by a commercial contract research organization. The studies were performed according to Obach, R. S et al. (1997) J. Pharmacol. Exp. Ther., 283: 46-58, which is incorporated herein by reference.

| Mouse liver microsomes, MLM t½ | SMILES |
| --- | --- |
| 86 min | CC(C)COc1cc(CCC(C)(C)N2Cc3ccc(S(C)(=O)=O)cc3C2)ccc1O [compound 87] |
| 75 min | CC(C)Oc1cc(CC[C@@H](C)N2Cc3ccc(S(C)(=O)=O)cc3C2)ccc1O [compound 69] |
| 5 min | CN1CCN(C(=O)c2cccc3c2CN(C(C)(C)CCc2ccc(O)c(OC(F)(F)F)c2)C3)CC1 [compound 93] |
| 14 min | CC(C)(CCc1ccc(O)c(OC(F)(F)F)c1)N1Cc2cccc(C(=O)N3CCOCC3)c2C1 [compound 94] |
| 66 min | COc1cc(CC[C@@H](C)N2Cc3cccc(F)c3C2)ccc1OCCO [compound 51] |
| 450 min | COc1cc(CCC(C)(C)N2Cc3cccc(C(=O)NCCN(C)C)c3C2)ccc1O [compound 78] |
| 88 min | COc1cc(CCC(C)(C)N2Cc3cccc(C(=O)N(C)CCN(C)C)c3C2)ccc1O [compound 81] |
| 41 min | COc1cc(CC[C@@H](C)N2Cc3cccc(S(C)(=O)=O)c3C2)ccc1O [compound 65] |
| 45 min | COc1cc(CCC(C)(C)N2Cc3cccc(C(=O)N4CCOCC4)c3C2)ccc1O [compound 80] |
| 7 min | CC(=O)N1CCN(C(=O)c2cccc3c2CN(C(C)(C)CCc2ccc(O)c(OCC(C)C)c2)C3)CC1 [compound 92] |
| 8 min | CN(C)C(=O)c1cccc2c1CN(C(C)(C)CCc1ccc(O)c(OC(C)(C)C)c1)C2 [compound 59] |
| 21 min | COc1cc(CCC(C)(C)N2Cc3cccc(F)c3C2)ccc1O [compound 53] |

The next lines start with the molecule.

| SMILES | Mouse liver microsomes, MLM t½ |
| --- | --- |
| C[C@H](CCc1ccc(F)cc1)N1Cc2cc3c(cc2C1)OCO3 [compound 23] | 5 min |
| C[C@H](CCc1ccc(O)c(OC(C)(C)C)c1)N1Cc2cccc(F)c2C1 [60B] | 8 min |
| Cc1ccc2c(c1)CN([C@H](C)CCc1ccc(Cl)c(Cl)c1)C2 [compound 13] | 3 min |
| CC(C)(CCc1ccc(F)cc1)N1Cc2cc3c(cc2C1)OCO3 [compound 36] | 47 min |
| COc1cc(CC[C@@H](C)N2Cc3cc4c(cc3C2)OCO4)ccc1O [compound 6] | 20 min |
| C[C@H](CCc1ccc(F)cc1)N1Cc2ccc(F)cc2C1 [compound 22] | 7 min |
| C[C@H](CCc1ccc(OC(=O)N(C)C)c(OC(F)(F)F)c1)N1Cc2ccc(F)cc2C1 [compound 43] | 5 min |
| C[C@H](CCc1ccc(O)c(OC(F)(F)F)c1)N1Cc2ccc(F)cc2C1 [compound 31] | 6 min |
| COC[C@H](CCc1ccc(Cl)c(Cl)c1)N1Cc2ccc(F)cc2C1 [compound 46] | 5 min |
| COc1cc(CCC(C)(C)N2Cc3cccc(F)c3C2)ccc1OCCO [compound 44] | 29 min |
| COc1cc2c(cc1OC)CN(C(C)(C)CCc1ccc(F)cc1)C2 [compound 34] | 46 min |
| CC(C)Oc1ccc(CCC(C)(C)N2Cc3ccc(F)cc3C2)cc1OC(C)C [compound 42] | 14 min |
| COc1cc(CCC(C)(C)N2Cc3ccc(F)cc3C2)ccc1OCCO [compound 45] | 96 min |
| COc1cc2c(cc1OC)CN([C@@H](C)CCc1ccc(Cl)c(Cl)c1)C2 [compound 20] | 43 min |
| COc1cc(CC[C@@H](C)N2Cc3ccc(C(F)(F)F)cc3C2)ccc1O [compound 2] | 28 min |
| C[C@H](CCc1ccc(Cl)c(Cl)c1)N1Cc2cccc(Cl)c2C1.Cl [compound 16] | 12 min |
| C[C@H](CCc1ccc(Cl)c(Cl)c1)N1Cc2cc3c(cc2C1)OCO3 [compound 10] | 8 min |
| COc1ccc2c(c1)CN([C@H](C)CCc1ccc(Cl)c(Cl)c1)C2.Cl [compound 15] | 15 min |
| C[C@H](CCc1ccc(Cl)c(Cl)c1)N1Cc2cc(Cl)c(Cl)cc2C1 [compound 5] | 53 min |
